The target of one experiment is T1, Kv3.4 channel (Rattus norvegicus, UniProt Q63734).
T1 construct: host or cells: COS cells
T1 sequence (Q63734 1-625): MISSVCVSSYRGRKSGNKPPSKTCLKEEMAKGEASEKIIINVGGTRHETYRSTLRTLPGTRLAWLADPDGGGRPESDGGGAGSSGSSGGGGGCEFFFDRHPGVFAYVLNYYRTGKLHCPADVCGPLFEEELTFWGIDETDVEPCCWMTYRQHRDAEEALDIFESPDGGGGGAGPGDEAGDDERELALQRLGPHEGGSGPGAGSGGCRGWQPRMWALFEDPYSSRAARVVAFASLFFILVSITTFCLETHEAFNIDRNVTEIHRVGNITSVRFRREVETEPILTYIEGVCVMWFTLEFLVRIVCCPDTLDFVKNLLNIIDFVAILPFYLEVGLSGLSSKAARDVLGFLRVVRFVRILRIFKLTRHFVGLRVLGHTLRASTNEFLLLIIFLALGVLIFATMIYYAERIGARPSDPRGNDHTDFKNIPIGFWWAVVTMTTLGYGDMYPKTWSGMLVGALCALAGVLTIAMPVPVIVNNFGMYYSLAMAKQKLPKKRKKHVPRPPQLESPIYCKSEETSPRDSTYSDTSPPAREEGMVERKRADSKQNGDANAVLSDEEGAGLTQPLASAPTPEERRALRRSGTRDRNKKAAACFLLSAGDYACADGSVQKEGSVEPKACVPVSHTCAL
As to conditions: COS-transfected cells, reversible; read-out: IC50, inhibition of Kv3.4 current; cited from earlier work.

The test system of experiment [1] is Na+ currents in FS neurons. Kind of experiment: Na+ currents in FS neurons. The class given is cell-based, rat. As to conditions: n=3. From the text: (§1) Tissue preparation. […] Hippocampal interneurons and GP were identified as CaMKII negative, GAD67 and parvalbumin positive neurons by single cell RT-PCR detection of corresponding mRNAs following physiology experiments (see below).
Electrophysiology. Whole-cell recordings used standard techniques^27,28. The internal solution consisted of (in mM): 30-90 K2SO4, 0-60 N-methyl-D-glucamine, 2 MgCl2, 40 HEPES, 5 EGTA, 12 phosphocreatine, 2 Na2ATP, 0.2 Na3GTP, and 0.1 leupeptin, pH 7.2 with H2SO4 (osmolarity 260-270 mOsm/l). The external solution consisted of (in mM): 140 Na-isethionate, 2 KCl, 4 MgCl2, 10 HEPES, 12 glucose and 0.001 TTX, pH 7.35 with NaOH (osmolarity 295-305 mOsm/l). The internal solution for current clamp recordings consisted of (in mM) 110 potassium methylsulphate, 2 MgCl2, 40 HEPES, 5 EGTA, 12 phosphocreatine, 2 Na2ATP, 0.2 Na3GTP, and 0.1 leupeptin, pH 7.2 with H2SO4 (osmolarity 260-270 mOsm/l). In the case of current clamp recordings, TTX was omitted from external solution. […] Recordings were obtained with Axon Instruments 200 patch-clamp amplifier and controlled and monitored with a PC running pClamp software (version 7.0) (Axon Instruments Inc., Union City, Calif.). […] After seal rupture, series resistance (2-10 MΩ) was compensated (75-90%) and periodically monitored. […]

Experiment [2] deals with Kv3 channels in FS neurons. Kind of experiment: Whole-cell voltage clamp of Kv3 delayed rectifier currents in acutely dissociated FS neurons. It is filed as cell-based, rat.
Source text: as §1
(§2) Electrophysiology. Whole-cell recordings used standard techniques^27,28. The internal solution consisted of (in mM): 30-90 K2SO4, 0-60 N-methyl-D-glucamine, 2 MgCl2, 40 HEPES, 5 EGTA, 12 phosphocreatine, 2 Na2ATP, 0.2 Na3GTP, and 0.1 leupeptin, pH 7.2 with H2SO4 (osmolarity 260-270 mOsm/l). The external solution consisted of (in mM): 140 Na-isethionate, 2 KCl, 4 MgCl2, 10 HEPES, 12 glucose and 0.001 TTX, pH 7.35 with NaOH (osmolarity 295-305 mOsm/l). The internal solution for current clamp recordings consisted of (in mM) 110 potassium methylsulphate, 2 MgCl2, 40 HEPES, 5 EGTA, 12 phosphocreatine, 2 Na2ATP, 0.2 Na3GTP, and 0.1 leupeptin, pH 7.2 with H2SO4 (osmolarity 260-270 mOsm/l). In the case of current clamp recordings, TTX was omitted from external solution. For the recordings in the presence of Ca^+2 ions EGTA was omitted from internal solution and 4 mM of MgCl2 was substituted by 2 mM of CaCl2 and 2 mM of MgCl2. All drugs were obtained from Sigma (St. Louis, […]) except BDS-I that was obtained from Alomone Labs (Jerusalem, Israel). Solutions were applied by gravity fed sewer pipe system. Recordings were obtained with Axon Instruments 200 patch-clamp amplifier and controlled and monitored with a PC running pClamp software (version 7.0) (Axon Instruments Inc., Union City, Calif.). […] After seal rupture, series resistance (2-10 MΩ) was compensated (75-90%) and periodically monitored. […] Activation data were fit with a Boltzmann equation of the form: 1/(1+exp ((Vh−V)/Vc), V stands for membrane potential. In the case of Kv3.4a current, an estimate of peak current was obtained by single exponential fit of decay phase extrapolated to the start of test pulse. In all other instances the voltage dependence of the currents was obtained from the amplitude of tail currents measured following 200 msec long voltage steps. […]

The test system of experiment [3] is K+ channels in the Kv1, Kv2, Kv3, and Kv4 subfamilies. As to conditions: cited from earlier work.
The subject of the next experiment is FS neurons. In words: Current clamp recording of spiking in FS neurons. The class given is cell-based, rat.
Source text: as §1, §2

The subject of experiment [4] is Inward rectifier K+ channels. The conditions noted are these: cited from earlier work.

pIC50: −log10 of the molar value.

The term pIC50 denotes −log10 of the IC50, conventionally taken in molar units. Take “BDS-I (AAPCFCSGKPGRGDLWILRGTCPGGYGYTSNCYKWPNICCYPH)”: the pIC50 in the experiment with Kv3.4 channel is 7.33. Besides, in experiment [1], the “inactivation kinetics of Na+ currents in FS neurons” value is “didn't significantly alter”. Also, in experiment [2], the “block of TEA-sensitive, Kv3 channel currents in FS neurons” value is reported as “efficiently blocked”; the “effect on delayed rectifier currents evoked by depolarization in FS neurons” value is “slowed the rising phase of delayed rectifier currents evoked by depolarization and reduced their amplitude”. Also, the “time for substantial unblocking of channels containing Kv3.4 subunits” value in experiment [2] (at +20 mV) is “more than 5 msec”. The “block of other K+ channels in the Kv1, Kv2, Kv3, and Kv4 subfamilies” value in experiment [3] is reported as “failed to block”. In addition, the “change in the rate of rise in the spike” value in the experiment with FS neurons is on record as “no obvious change”. Moreover, the “increase of duration of spikes in FS neurons” value with FS neurons (BDS-I 2 μM, extracellular Ca2+ 2 mM, n=4) is on record as 53+13%. In addition, the “rate of repetitive spiking evoked by sustained current injection” value in the experiment with FS neurons (with and without extracellular Ca2+) is “slowed”. For the same substance, in experiment [4], the “sensitivity of inward rectifier K+ channels” value is “insensitive”.

The record behind these values is patent US7629323B2, “Manipulation of neuronal ion channels” (Northwestern University, priority 2003, dated 2009).
